Measured values as given in ChEMBL document CHEMBL6182832, “Design and synthesis of coumarin-based amphoteric antimicrobials with biofilm interference and immunoregulation effects” (RSC Med Chem, 2025).
Values after ≈ are worked out from the molar mass of the structure shown. Active and inactive are the calls of the source. The rule behind the calls is not given here.

Key:
[1] = Hemolytic activity in rabbit erythrocytes assessed as hemolysis at 0.5 to 125 ug/ml; assay type: toxicity, cell-based, Oryctolagus cuniculus; conditions: erythrocyte, dose 0.5-125 µg/ml
[2] = tested on: Escherichia coli; assay: Antibacterial activity against clinically isolated Escherichia coli ATCC25922 assessed as inhibition of bacterial growth measured after 16 to 24 hrs by broth microdilution method; assay type: functional; conditions: time 16-24 hrs, read-out: MIC100
[3] = tested on: Escherichia coli; assay: Antibacterial activity against clinically isolated Escherichia coli DE17 assessed as inhibition of bacterial growth measured after 16 to 24 hrs by broth microdilution method; assay type: functional; conditions: time 16-24 hrs, read-out: MIC100
[4] = tested on: Staphylococcus aureus; assay: Antibacterial activity against clinically isolated Staphylococcus aureus ATCC29213 assessed as inhibition of bacterial growth measured after 16 to 24 hrs by broth microdilution method; assay type: functional; conditions: time 16-24 hrs, read-out: MIC100
[5] = tested on: Staphylococcus aureus; assay: Antibacterial activity against clinically isolated methicillin-resistant Staphylococcus aureus assessed as inhibition of bacterial growth measured after 16 to 24 hrs by broth microdilution method; assay type: functional; conditions: time 16-24 hrs, read-out: MIC100
[6] = tested on: Bacillus subtilis; assay: Antibacterial activity against clinically isolated Bacillus subtilis ATCC6633 assessed as inhibition of bacterial growth measured after 16 to 24 hrs by broth microdilution method; assay type: functional; conditions: time 16-24 hrs, read-out: MIC100
[7] = tested on: Bacillus cereus; assay: Antibacterial activity against clinically isolated Bacillus cereus CMCC63303 assessed as inhibition of bacterial growth measured after 16 to 24 hrs by broth microdilution method; assay type: functional; conditions: time 16-24 hrs, read-out: MIC100
[8] = tested on: Listeria monocytogenes; assay: Antibacterial activity against clinically isolated Listeria monocytogenes CICC21662 assessed as inhibition of bacterial growth measured after 16 to 24 hrs by broth microdilution method; assay type: functional; conditions: time 16-24 hrs, read-out: MIC100
[9] = tested on: Enterococcus faecalis; assay: Antibacterial activity against clinically isolated Enterococcus faecalis ATCC29212 assessed as inhibition of bacterial growth measured after 16 to 24 hrs by broth microdilution method; assay type: functional; conditions: time 16-24 hrs, read-out: MIC100
[10] = tested on: RAW264.7; assay: Anti-inflammatory activity against mouse RAW264.7 cells assessed as inhibition LPS-stimulated NO production 0.5 to 4 ug/ml measured after 24 hrs by NO assay kit; assay type: functional, cell-based; conditions: dose 0.5-4 µg/ml
[11] = tested on: Staphylococcus aureus; assay: Anti-biofilm activity against clinically isolated Staphylococcus aureus ATCC29213 assessed inhibition of biofilm formation at 0.5 to 128 ug/ml measured after 12 to 16 hrs incubation by crystal violet staining based analysis; assay type: functional, organism-based; conditions: dose 0.5-128 µg/ml, time 12-16 hrs
[12] = tested on: Escherichia coli; assay: Anti-biofilm activity against clinically isolated Escherichia coli DE17 assessed inhibition of biofilm formation at 0.5 to 128 ug/ml measured after 12 to 16 hrs incubation by crystal violet staining based analysis; assay type: functional, organism-based; conditions: dose 0.5-128 µg/ml, time 12-16 hrs
[13] = Hemolytic activity in rabbit erythrocytes assessed as hemolysis at >8 ug/ml; assay type: toxicity, cell-based, Oryctolagus cuniculus; conditions: erythrocyte, dose > 8 µg/ml
[14] = tested on: Staphylococcus aureus; assay: Anti-biofilm activity against clinically isolated Staphylococcus aureus ATCC29213 assessed inhibition of biofilm formation at 2 ug/ml measured after 12 to 16 hrs incubation by crystal violet staining based analysis; assay type: functional; conditions: time 12-16 hrs
[15] = tested on: Staphylococcus aureus; assay: Anti-biofilm activity against clinically isolated Staphylococcus aureus ATCC29213 assessed inhibition of biofilm formation at 4 ug/ml measured after 12 to 16 hrs incubation by crystal violet staining based analysis; assay type: functional; conditions: time 12-16 hrs
[16] = tested on: Escherichia coli; assay: Anti-biofilm activity against clinically isolated Escherichia coli DE17 assessed inhibition of biofilm formation at 8 ug/ml measured after 12 to 16 hrs incubation by crystal violet staining based analysis; assay type: functional; conditions: time 12-16 hrs
[17] = tested on: Escherichia coli; assay: Anti-biofilm activity against clinically isolated Escherichia coli DE17 assessed inhibition of biofilm formation at 16 ug/ml measured after 12 to 16 hrs incubation by crystal violet staining based analysis; assay type: functional; conditions: time 12-16 hrs
[18] = tested on: Staphylococcus aureus; assay: Biofilm eradication activity against Staphylococcus aureus ATCC29213 assessed biofilm scavenging at 4 ug/ml measured after 12 to 16 hrs incubation by crystal violet staining based analysis; assay type: functional, organism-based; conditions: dose 4.0 µg/ml, time 12-16 hrs
[19] = tested on: Escherichia coli; assay: Biofilm eradication activity against Escherichia coli DE17 assessed biofilm scavenging at 16 ug/ml measured after 12 to 16 hrs incubation by crystal violet staining based analysis; assay type: functional, organism-based; conditions: dose 16.0 µg/ml, time 12-16 hrs

Compound: O=c1ccc2ccc(O)cc2o1 [UMBELLIFERONE]
- Activity [1]: Non-toxic
- MIC [2]: > 256 µg/mL
- MIC [3]: > 256 µg/mL
- MIC [4]: > 256 µg/mL
- MIC [5]: > 256 µg/mL
- MIC [6]: > 256 µg/mL
- MIC [7]: > 256 µg/mL
- MIC [8]: > 256 µg/mL
- MIC [9]: > 256 µg/mL
- Activity [10]: inactive
- Activity [11]: inactive
- Activity [12]: inactive

Compound: CCCN(CCC)CCCCOc1cc(=O)oc2ccccc12
- MIC [2]: > 256 µg/mL
- MIC [3]: > 256 µg/mL
- MIC [4]: > 256 µg/mL
- MIC [5]: > 256 µg/mL

Compound: CCN(CC)CCCCOc1cc(=O)oc2ccccc12
- MIC [2]: > 256 µg/mL
- MIC [3]: > 256 µg/mL
- MIC [4]: > 256 µg/mL
- MIC [5]: > 256 µg/mL

Compound: CCCN(CCC)CCCCCCCCCCCCOc1cc(=O)oc2ccccc12
- MIC [2]: > 256 µg/mL
- MIC [3]: > 256 µg/mL
- MIC [4]: 4 µg/mL (≈ 9.31 µM)
- MIC [5]: 2 µg/mL (≈ 4.66 µM)

Compound: CCCN(CCC)CCCCCCCCOc1cc(=O)oc2ccccc12
- MIC [2]: > 256 µg/mL
- MIC [3]: > 256 µg/mL
- MIC [4]: 16 µg/mL (≈ 42.8 µM)
- MIC [5]: 32 µg/mL (≈ 85.7 µM)

Compound: CN(C)CCCCCCCCOc1ccc2ccc(=O)oc2c1
- MIC [2]: > 256 µg/mL
- MIC [3]: > 256 µg/mL
- MIC [4]: > 128 µg/mL
- MIC [5]: 64 µg/mL (≈ 202 µM)

Compound: CCN(CC)CCCCCCCCCCCCOc1cc(=O)oc2ccccc12
- MIC [2]: > 256 µg/mL
- MIC [3]: > 256 µg/mL
- MIC [4]: 2 µg/mL (≈ 4.98 µM)
- MIC [5]: 2 µg/mL (≈ 4.98 µM)
- MIC [6]: 1 µg/mL (≈ 2.49 µM)
- MIC [7]: 4 µg/mL (≈ 9.96 µM)
- MIC [8]: 1 µg/mL (≈ 2.49 µM)
- MIC [9]: 4 µg/mL (≈ 9.96 µM)
- Activity [13]: Toxic
- Activity [10]: Active
- Activity [11]: Dose-dependent-effect
- Activity [12]: Dose-dependent-effect
- inhibition at 2 µg/mL [14]: 100%
- inhibition at 4 µg/mL [15]: 100%
- inhibition at 8 µg/mL [16]: 100%
- inhibition at 16 µg/mL [17]: 100%
- Activity [18]: Active
- Activity [19]: Active

Compound: CCCN(CCC)CCCCCCCCOc1ccc2ccc(=O)oc2c1
- MIC [2]: > 256 µg/mL
- MIC [3]: > 256 µg/mL
- MIC [4]: 32 µg/mL (≈ 85.7 µM)
- MIC [5]: 32 µg/mL (≈ 85.7 µM)

Compound: CN(C)CCCCOc1ccc2ccc(=O)oc2c1
- MIC [2]: > 256 µg/mL
- MIC [3]: > 256 µg/mL
- MIC [4]: > 256 µg/mL
- MIC [5]: > 256 µg/mL

Compound: CN(C)CCCCOc1cc(=O)oc2ccccc12
- MIC [2]: > 256 µg/mL
- MIC [3]: > 256 µg/mL
- MIC [4]: > 256 µg/mL
- MIC [5]: > 256 µg/mL

Compound: CCCCN(CCCC)CCCCCCCCOc1cc(=O)oc2ccccc12
- MIC [2]: > 256 µg/mL
- MIC [3]: > 256 µg/mL
- MIC [4]: 16 µg/mL (≈ 39.8 µM)
- MIC [5]: 32 µg/mL (≈ 79.7 µM)

Compound: CCCCN(CCCC)CCCCOc1cc(=O)oc2ccccc12
- MIC [2]: > 256 µg/mL
- MIC [3]: > 256 µg/mL
- MIC [4]: 256 µg/mL (≈ 741 µM)
- MIC [5]: > 256 µg/mL

Compound: CCCCN(CCCC)CCCCCCCCOc1ccc2ccc(=O)oc2c1
- MIC [2]: > 256 µg/mL
- MIC [3]: > 256 µg/mL
- MIC [4]: 16 µg/mL (≈ 39.8 µM)
- MIC [5]: 32 µg/mL (≈ 79.7 µM)

Compound: CN[C@H](CC(C)C)C(=O)N[C@H]1C(=O)N[C@@H](CC(N)=O)C(=O)N[C@H]2C(=O)N[C@H]3C(=O)N[C@H](C(=O)N[C@H](C(=O)O)c4cc(O)cc(O)c4-c4cc3ccc4O)[C@H](O)c3ccc(c(Cl)c3)Oc3cc2cc(c3O[C@@H]2O[C@H](CO)[C@@H](O)[C@H](O)[C@H]2O[C@H]2C[C@](C)(N)[C@H](O)[C@H](C)O2)Oc2ccc(cc2Cl)[C@H]1O [VANCOMYCIN]
- MIC [2]: > 256 µg/mL
- MIC [3]: > 256 µg/mL
- MIC [6]: 0.5 µg/mL (≈ 0.345 µM)
- MIC [8]: 0.5 µg/mL (≈ 0.345 µM)
- MIC [9]: 2 µg/mL (≈ 1.38 µM)

Compound: CCCCN(CCCC)CCCCOc1ccc2ccc(=O)oc2c1
- MIC [2]: > 256 µg/mL
- MIC [3]: > 256 µg/mL
- MIC [4]: > 256 µg/mL
- MIC [5]: > 256 µg/mL

Compound: CCCCN(CCCC)CCCCCCCCCCCCOc1cc(=O)oc2ccccc12
- MIC [2]: > 256 µg/mL
- MIC [3]: > 256 µg/mL
- MIC [4]: 4 µg/mL (≈ 8.74 µM)
- MIC [5]: 4 µg/mL (≈ 8.74 µM)
- MIC [6]: 1 µg/mL (≈ 2.18 µM)
- MIC [7]: 8 µg/mL (≈ 17.5 µM)
- MIC [8]: 1 µg/mL (≈ 2.18 µM)
- MIC [9]: 4 µg/mL (≈ 8.74 µM)

Compound: CN(C)CCCCCCCCCCCCOc1cc(=O)oc2ccccc12
- MIC [2]: > 256 µg/mL
- MIC [3]: > 256 µg/mL
- MIC [4]: 4 µg/mL (≈ 10.7 µM)
- MIC [5]: 4 µg/mL (≈ 10.7 µM)

Compound: CCCCN(CCCC)CCCCCCCCCCCCOc1ccc2ccc(=O)oc2c1
- MIC [2]: > 256 µg/mL
- MIC [3]: > 256 µg/mL
- MIC [4]: 1 µg/mL (≈ 2.18 µM)
- MIC [5]: 4 µg/mL (≈ 8.74 µM)

Compound: CCN(CC)CCCCCCCCOc1ccc2ccc(=O)oc2c1
- MIC [2]: > 256 µg/mL
- MIC [3]: > 256 µg/mL
- MIC [4]: 64 µg/mL (≈ 185 µM)
- MIC [5]: 64 µg/mL (≈ 185 µM)

Compound: CCN(CC)CCCCOc1ccc2ccc(=O)oc2c1
- MIC [2]: > 256 µg/mL
- MIC [3]: > 256 µg/mL
- MIC [4]: > 256 µg/mL
- MIC [5]: > 256 µg/mL

Compound: CCCN(CCC)CCCCCCCCCCCCOc1ccc2ccc(=O)oc2c1
- MIC [2]: > 256 µg/mL
- MIC [3]: > 256 µg/mL
- MIC [4]: 8 µg/mL (≈ 18.6 µM)
- MIC [5]: 4 µg/mL (≈ 9.31 µM)

Compound: O=c1cc(O)c2ccccc2o1 [4-HYDROXYCOUMARINS]
- MIC [2]: > 256 µg/mL
- MIC [3]: > 256 µg/mL
- MIC [4]: 256 µg/mL (≈ 1580 µM)
- MIC [5]: > 256 µg/mL
- MIC [6]: > 256 µg/mL
- MIC [7]: > 256 µg/mL
- MIC [8]: > 256 µg/mL
- MIC [9]: > 256 µg/mL

Compound: CN(C)CCCCCCCCOc1cc(=O)oc2ccccc12
- MIC [2]: > 256 µg/mL
- MIC [3]: > 256 µg/mL
- MIC [4]: 32 µg/mL (≈ 101 µM)
- MIC [5]: 64 µg/mL (≈ 202 µM)

Compound: CCCN(CCC)CCCCOc1ccc2ccc(=O)oc2c1
- MIC [2]: > 256 µg/mL
- MIC [3]: > 256 µg/mL
- MIC [4]: > 256 µg/mL
- MIC [5]: > 256 µg/mL

Compound: CN(C)CCCCCCCCCCCCOc1ccc2ccc(=O)oc2c1
- MIC [2]: > 256 µg/mL
- MIC [3]: > 256 µg/mL
- MIC [4]: 16 µg/mL (≈ 42.8 µM)
- MIC [5]: 4 µg/mL (≈ 10.7 µM)

Compound: CCN(CC)CCCCCCCCOc1cc(=O)oc2ccccc12
- MIC [2]: > 256 µg/mL
- MIC [3]: > 256 µg/mL
- MIC [4]: 64 µg/mL (≈ 185 µM)
- MIC [5]: 4 µg/mL (≈ 11.6 µM)

Compound: CCN1CCN(c2cc3c(cc2F)c(=O)c(C(=O)O)cn3C2CC2)CC1 [ENROFLOXACIN]
- MIC [2]: 0.031 µg/mL (≈ 0.0863 µM)
- MIC [3]: 0.031 µg/mL (≈ 0.0863 µM)
- MIC [4]: 0.062 µg/mL (≈ 0.173 µM)
- MIC [5]: 32 µg/mL (≈ 89 µM)
